# Data published in patent US10905757B2, “Cross-reactive T cell epitopes of HIV, SIV, and FIV for vaccines in humans and cats” (priority 2012, dated 2021).
# “Also recorded” adds a separate entry of the source. Marks after values point to notes of the source that are not given here. Ends that are not written are not given here.
# Experiments:
# Format in all cases: cell-based, human
# [1] = tested on: CD4+ T cells from HIV+ subjects; assay: Intracellular cytotoxin staining (ICS), CD4+ T cells from HIV+ subjects; design: key to CD4^+ T-cell cytotoxins (4C): positive (+); negative (−) response; inhibitory (↓); not done (n); conditions: HIV^+ subjects compared to HIV^− control group
# Experimental: (§1) Briefly, 1×10^6PBMCs (freshly isolated) are stimulated with 20 μg of peptides for 6 hours in a total volume of 200 μL in a 96-well plate in presence of Golgi transport inhibitor (37° C., 5% CO2). The cells are processed as previously described (Horton et al. (2007)). Cells were stained with the LIVE/DEAD® fixable yellow dye (Invitrogen, Eugene, Oreg.). The monoclonal antibodies fluorochome-conjugated to human cytokines used are: APC-H7 to CD3 (clone SK7); BD Horizon V450 to CD4 (clone RPA-T4); Qdot to CD8 (clone 3B5); PE-cy7 to IFN-γ (clone 4S.B3); APC to IL-2 (clone MQ1-17H12) PerCP to perforin (clone B-D48); Alexa F1.700 to granzyme-B (clone GB11) and PE to granzyme-A (clone CB9). The flow cytometry data is collected using BD LSRII and analyzed with the FACS DIVA software.
# (§2) The ICS analysis (Horton et al. (2007)) involved stimulating 0.5-1.0×10^6 freshly isolated PBMC for 6 h with the same peptide stimulant and culture conditions as the proliferation analysis in the presence of 1 μg/mL of Golgi transport inhibitor and monensin followed by labeling with LIVE/DEAD fixable yellow dye and then treatment with anti-CD16/CD32 antibody and T-cell phenotypic antibodies. The cells were subsequently fixed and permeabilized with Cytofix/Cytoperm solution (BD Biosciences) before reaction with anti-cytotoxin antibodies. The antibodies consisted of anti-CD3 APC-H7, anti-CD4 BD Horizon V450, and anti-CD8 FITC followed by anti-GrzB Alexa 700 and anti-GrzA PE (all from BD Biosciences), and anti-perforin PerCP (Abcam, Boston, Mass.).
# (§3) In both analyses, 1.0-2.0×10^4 cells were fixed in phosphate-buffered saline (PBS) containing 2% paraformaldehyde and analyzed on BD LSRII using […] Software (BD Biosciences), with a positive threshold of 3% CFSE^low for CFSE-proliferation and 1% T cells expressing cytotoxin for ICS. The final value for each subject was derived after subtraction of the subject's medium control and the average value of peptide-stimulated cells from uninfected control subjects.
# (§4) Flow cytometry (FACS) for measuring CFSE-proliferation and intracellular cytokine staining (ICS). Carboxyfluorescein diacetate succinimide ester (CFSE)-proliferation analysis was performed according to the manufacturer's protocol (Invitrogen) and processed as previously described (Lichterfeld et al. 2004) using the following modification: 2.5-5.0×10^5 CFSE-labeled PBMC stimulated for 4-5 days (37° C., 5% CO2) with 15-30 μg of peptides in culture media (AIM V medium, 25 μg/mL gentamycin, and 10% heat-inactivated fetal bovine serum). The ICS analysis was performed as previously described (Horton et al. 2007; Pattacini et al. 2012).
# (§5) The antibodies used for the proliferation analysis consisted of anti-CD4 allophycocyanin (APC) anti-CD3 APC-H7, and anti-CD8 Pacific Blue, and those for ICS were anti-CD3 APC-H7, anti-CD4 BD Horizon V450, anti-CD8 FITC, anti-granzyme B (GrzB) Alexa 700, anti-granzyme A (GrzA) PE (BD Biosciences, Cat #555349, 560176, 558207, 560345, 555366, 560213, 558904), and anti-perforin PerCP (Abcam, Cat #ab86319). Both analyses were performed with BD LSRII and […]™ Software (BD Biosciences), using a positive threshold of >1% CFSE^low for CFSE-proliferation except for ICS studies with threshold of >0.1% T cells expressing cytotoxin. The final value for each subject was derived after subtracting the result of each HIV^+ subject with the media control followed by subtraction with the average response of the media-control subtracted HIV^− subjects.
# [2] = tested on: CD8+ T cells from HIV+ subjects; assay: Intracellular cytotoxin staining (ICS: perforin, GrzA, GrzB, CD107a), CD8+ T cells from HIV+ subjects; design: key to CD8^+ T-cell cytotoxins (8C): positive (+); negative (−) response; inhibitory (↓); not done (n); conditions: for CD8^+ T-cell cytotoxins (8C): HIV^+ subjects compared to HIV^− control group
# Experimental: as §1, §2, §3, §4, §5
# PBMC from HIV+ subjects = assay: IFNγ ELISpot, PBMC from HIV+ subjects; conditions: for IFNγ (positive/total): positive responses over total tested, F3 responders (H3 responders for H3-3)
# Experimental: 1.0×10^5-2.0×10^5 PBMCs were stimulated with peptides (15 μg peptide/well) in ELISpot plates for 18 hours in AIMS V medium (at 10% normal human serum). The spots were counted with an ELISpot reader and adjusted to spot forming units (SFU) per 10^6 cells.
# Positive reactivity was defined at ≥70 SFU/10^6 cells after subtracting the background derived from non-specific peptide control or media control, and the average of 3 HIV-1 negative controls (<30 SFU/10^6 cells).
# ELISpot assays. Enzyme-linked immunosorbent spot assays (ELISpot) for IFNγ (R&D Systems, Minneapolis, Minn.) were performed with AIM V medium containing 5% heat-inactivated (56° C., 30 min) human serum as previously described (Abbott et al. (2012)). The PBMC from HIV+ subjects were stimulated with either peptide pool (4-5 consecutive peptides per pool at 5 μg per peptide) or individual peptide (15 μg/well). The peptides were 11-16 aa in length with 8-10 aa overlap. The results were analyzed with an ELISpot reader (MVS Pacific LLC, Minneapolis, Minn.) and adjusted to spot forming units (SFU) per 10^6 cells, after subtraction of the average medium control for each subject. The PBMC from HIV+ subjects were stimulated with T-cell mitogen, phytohemaglutinin A (PHA, 5 μg/mL), as positive control. At a positive threshold of 70 SFU, HIV− subjects had no substantial IFNγ responses (>50 SFU) to HIV and FIV peptide pools.
# ELISpot assays. Human enzyme-linked immunosorbent spot assays (ELISpot) (R&D Systems, Cat #XEL285) which measure IFNγ production were performed (Abbott et al. 2011). The positive threshold for human IFNγ responses was >50 spot forming units (SFU)/10^6 cells. The final value for each subject was derived after subtracting the result of each HIV^+ subject with the media control followed by subtraction with the average response of the HIV^− subjects which was rarely more than 10 SFU.
# [3] = tested on: CD3+CD8+ T cells from HIV+ subjects; assay: CFSE-proliferation, CD3+CD8+ T cells from HIV+ subjects; conditions: for CD8^+ T Proliferation (positive/total): positive responses over total tested, F3 responders (H3 responders for H3-3)
# Experimental: (§6) 2×10^5-5×10^5 CFSE labeled PBMCs were incubated with 15-20 μg of peptides in 600 μL of RPMI media with 10% FBS for 5 days at 37° C. (5% CO2). After harvesting, they were labeled with allophycocyanin (APC), APC-H7, and Pacific Blue labeled monoclonal antibodies (MAb) to human CD3, CD4, and CD8, respectively and analyzed for T-cell proliferation by flow cytometry using BD LSRII (BD Biosciences). The proliferating CD4^+ or CD8^+ T cell populations were defined from the CD3^+ cell population as either CD3^+CD8^+ or CD3^+CD4^+T cells (mutually exclusive) with low CFSE (CFSE^low) staining.
# (§7) Flow cytometry (FACS) for carboxyfluoresein diacetate succinimide ester (CFSE)-proliferation and intracellular cytotoxin staining (ICS). The CFSE-proliferation analysis was performed on PBMC according to the manufacturer's protocol (Invitrogen, Carlsbad, Calif.) and processed as previously described (Lichterfeld et al. (2004)). Modifications consisted of using 2.0-5.0×10^5 CFSE-labeled cells stimulated for 5 days (37° C., 5% CO^2) with 30 μg/well of total peptides in a pool (15 μg/well for individual peptide, Table 10) or 5 μg/mL PHA in AIM V medium containing 25 μg/mL of gentamycin and 10% heat-inactivated human serum. Subsequently these cells were harvested and labeled with the LIVE/DEAD fixable yellow dye (Invitrogen) and then treated 5 min with anti-CD16/CD32 antibody (Biolegend, San Diego, Calif.) for blocking non-specific binding before phenotype-specific antibodies. The following antibodies were used for the CFSE-proliferation analysis: anti-CD4 APC, anti-CD3 APC-H7, and anti-CD8 Pacific Blue (BD Biosciences, San Jose, Calif.).
# as §3, §4, §5
# [4] = tested on: CD3+CD4+ T cells from HIV+ subjects; assay: CFSE-proliferation, CD3+CD4+ T cells from HIV+ subjects
# Experimental: as §6, §7, §3, §4, §5
# [5] = tested on: CD4+ or CD8+ T cells from HIV+ subjects; assay: Intracellular cytotoxin staining (ICS), CD4+ or CD8+ T cells from HIV+ responders
# Experimental: Briefly, 1×10^6PBMCs (freshly isolated) are stimulated with 20 μg of peptides for 6 hours in a total volume of 200 μL in a 96-well plate in presence of Golgi transport inhibitor (37° C., 5% CO2). […] Cells were stained with the LIVE/DEAD® fixable yellow dye (Invitrogen, Eugene, Oreg.). […] The flow cytometry data is collected using BD LSRII and analyzed with the FACS DIVA software.
# The cells were subsequently fixed and permeabilized with Cytofix/Cytoperm solution (BD Biosciences) before reaction with anti-cytotoxin antibodies. The antibodies consisted of anti-CD3 APC-H7, anti-CD4 BD Horizon V450, and anti-CD8 FITC followed by anti-GrzB Alexa 700 and anti-GrzA PE (all from BD Biosciences), and anti-perforin PerCP (Abcam, Boston, Mass.).
# as §3
# Flow cytometry (FACS) for measuring CFSE-proliferation and intracellular cytokine staining (ICS).
# Both analyses were performed with BD LSRII and […]™ Software (BD Biosciences), using a positive threshold of >1% CFSE^low for CFSE-proliferation except for ICS studies with threshold of >0.1% T cells expressing cytotoxin.
# [6] = average positive values, responders to Fp9 or Fp14 peptide pools
# [7] = responders to Fp9 or Fp14 peptide pools
# [8] = responders/tested, small 9-13mer peptides, yr 4, responders to Fp9 or Fp14 pool via both proliferation and IFNγ
# [9] = small 9-13mer peptides, yr 4, responders to Fp9 or Fp14 pool via both proliferation and IFNγ
substance,measurement,setting,value
AEVKLYLKQSLSIA [Fp14-3],CD4^+ T-cell cytotoxins (4C),[1],+
same,cytotoxin expression / CTL-associated activity in CD8+ T cells (in words),[2],highest frequency and levels
same,CD8^+ T-cell cytotoxins (8C),[2],+
same,HIV+ subjects whose CD8+ T cells responded with one or more cytotoxins,"[2]; five HIV+ subjects, individual 13-15mer peptides",five
KKKDSTKWRKLVDFR [H3-3],IFNγ response of H3 responders retested,PBMC from HIV+ subjects; three H3 responders tested on or after the second year,0/3
ASQEVKNWMTETLLV [Hp15-2],CD4^+ T-cell cytotoxins (4C),[1],+
same,CD8^+ T-cell cytotoxins (8C),[2],+
FIV F3-3m4 (KKKSTKWRKLIDFRV),IFNγ (positive/total),PBMC from HIV+ subjects,0/9
same,CD8^+ T Proliferation (positive/total),[3],0/5
KLYLKQSLSI [Fp14-3/4f],(magnitude) IFNγ,PBMC from HIV+ subjects; [6],low (low when the frequency of response is <15% CFSE or <125 SFU)
same,IFNγ response of HIV+ subjects (in words),PBMC from HIV+ subjects; p24 pools and peptides,low
same,"Responder Frequency in %, IFNγ",PBMC from HIV+ subjects; [7],40%
same,(magnitude) CD8 Proliferation,[3]; [6],high (high when >30 CSFE)
same,CD8+ T-cell proliferation response of HIV+ subjects (in words),[3]; p24 pools and peptides,high
same,"Responder Frequency in %, CD8 Proliferation",[3]; [7],100%
same,CD8^+ T-cell Responder Frequency,[3]; [8],10/10
same,CD8^+ T-cell Responder Frequency (%),[3]; [9],(100) ^d %
same,CD4+ T-cell proliferation response of HIV+ subjects (in words),[4],high
same,(magnitude) CD4 Proliferation,[4]; [6],low (The average positive values are considered low when the frequency of response is <15% CFSE)
same,"Responder Frequency in %, CD4 Proliferation",[4]; [7],60%
same,CD4^+ T-cell Responder Frequency,[4]; [8],6/10
same,CD4^+ T-cell Responder Frequency (%),[4]; [9],(60) ^d %
same,cytotoxin and CD107a expression in CD4+ and CD8+ T cells (in words),[5]; p24 peptides,high frequency of cytotoxin expression; also recorded: high cytotoxin and CD107a expression
same,Cytotoxins,[5]; [7],High Cytotoxins (The cytotoxin result is considered high when four or five subjects express one or more cytotoxins in the CD8^+ T cells)
FIV 3-3 (WV9) (WRMLIDFRV),IFNγ (positive/total),PBMC from HIV+ subjects,8/11
same,CD8^+ T Proliferation (positive/total),[3],1/6
FIV F3-3m1 (KKKDSGKWRMLIDFR),IFNγ (positive/total),PBMC from HIV+ subjects,0/9
same,CD8^+ T Proliferation (positive/total),[3],1/5
FIV F3-3 (KKKSGKWRMLIDFRV),IFNγ (positive/total),PBMC from HIV+ subjects,13/13
same,CD8^+ T Proliferation (positive/total),[3],6/9
FIV F3-3m5 (KKKSGKWRKLIDFRV),IFNγ (positive/total),PBMC from HIV+ subjects,0/9
same,CD8^+ T Proliferation (positive/total),[3],0/5
FIV F3-3m3 (KKKSGKWRMLVDFRV),IFNγ (positive/total),PBMC from HIV+ subjects,0/9
same,CD8^+ T Proliferation (positive/total),[3],0/5
FIV F3-3 (KV15) (KKKSGKWRMLIDFRV),IFNγ (positive/total),PBMC from HIV+ subjects,13/13
same,CD8^+ T Proliferation (positive/total),[3],6/9
CAEV & MVV (KKKSGKWRMLIDFRE),IFNγ (positive/total),PBMC from HIV+ subjects,1/9
same,CD8^+ T Proliferation (positive/total),[3],0/5
EQNTAEVKLYLKQSL [Fp14-2],CD4^+ T-cell cytotoxins (4C),[1],+
same,CD8^+ T-cell cytotoxins (8C),[2],+
FIV F3-3m2 (KKKDSGKWRMLIDFRV),IFNγ (positive/total),PBMC from HIV+ subjects,7/9
same,CD8^+ T Proliferation (positive/total),[3],2/5
FIV F3-3m6 (KKKSTKWRMLIDFRV),IFNγ (positive/total),PBMC from HIV+ subjects,7/9
same,CD8^+ T Proliferation (positive/total),[3],2/5
FIV 3-3 (KR9) (KWRMLIDFR),IFNγ (positive/total),PBMC from HIV+ subjects,1/9
same,CD8^+ T Proliferation (positive/total),[3],0/6
